Assay results from the METLIN SMRT retention time set (Domingo-Almenara et al. 2019).

Test: gradient 5% acetonitrile 3 min, to 50% in 2 min, to 85% in 15 min, held 3 min, 100 µL/min
Settings: column: Zorbax Extend-C18 2.1 x 50 mm; eluents: water / acetonitrile, 0.1% formic acid
How it was run: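 Data were gathered over 3 months by HPLC coupled to a quadrupole time-of-flight mass spectrometer, operated in positive and negative ionization mode. Mixtures of ~100 pure standards ran on a Zorbax Extend-C18 column (2.1 × 50 mm, 1.8 μm) at 100 μL/min, with water and acetonitrile each containing 0.1% formic acid and dead and dwell volumes of 40 μL and 900 μL. Retention time was read from adduct peaks picked by computer and checked manually.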

CCn1cc(-c2nc(C)c(C(=O)NCc3ccc(C)o3)s2)c2cccnc21
RP-LC retention time: 912 s

CCCn1c(=O)c(N2CCC(NC(=O)Nc3cccc(C)c3)CC2)nc2ccccc21
RP-LC retention time: 1030 s

O=C1NC2(CCN(C(=O)c3ccccc3)CC2)N=C1c1ccc(Br)cc1
RP-LC retention time: 861 s

COc1ccc(S(=O)(=O)Cc2nc(-c3ccc(Cl)cc3)no2)cc1
RP-LC retention time: 1030 s

CC(=O)c1cccc(NC(=O)c2noc3c2CCCCC3)c1
RP-LC retention time: 977 s

C[C@@H](NC(=O)c1cccc(Cl)c1)C(=O)NCc1cscn1
RP-LC retention time: 652 s

CC(C)n1c(=O)n(CC(=O)N2CCCc3ccccc32)c2cc(S(=O)(=O)N3CCCC3)ccc21
RP-LC retention time: 947 s

COCCn1cc2c3c(cccc31)CN(C(=O)Nc1cc(F)cc(F)c1)CC2
RP-LC retention time: 963 s

CCCNC(=O)c1ccc2c(=O)n(Cc3ccccc3)c(N(CC)CC)nc2c1
RP-LC retention time: 997 s

O=C(CN1C(=O)CC(c2ccccc2)S(=O)(=O)c2ccccc21)Nc1ccccc1F (stereo not given)
RP-LC retention time: 871 s

CNC(=O)c1n[nH]c2c1CC(C(C)(C)C)CC2 (stereo not given)
RP-LC retention time: 786 s

COc1ccc(-c2cc(=O)n(CC(=O)Nc3nc4c(s3)CCCC4)cn2)cc1
RP-LC retention time: 762 s

Cc1cn2c3c(=O)n(Cc4c(F)cccc4Cl)c(=O)n(C)c3nc2n1C(C)C
RP-LC retention time: 886 s

CCn1c(N2CCCC(C(=O)Nc3cc(OC)cc(OC)c3)C2)cc(=O)n(C)c1=O (stereo not given)
RP-LC retention time: 829 s

COc1cc(/C=C(\OC(C)=O)c2ccc3c(c2)OCO3)cc(OC)c1OC
RP-LC retention time: 924 s

COc1cc(OC)cc(C(=O)N2CCC3(CC2)N=C(c2ccc(Cl)cc2)NO3)c1
RP-LC retention time: 893 s

Cc1ccc(-n2nnc(C(=O)O)c2-c2ccccn2)cc1
RP-LC retention time: 670 s

Cc1ccccc1OCC(=O)N1CCC2(CC1)NC(=O)N(Cc1ccccc1Cl)C2=O
RP-LC retention time: 909 s

CSc1ccc(-c2noc(CN3C(=O)COc4ccc(C(C)(C)C)cc43)n2)cc1
RP-LC retention time: 1300 s

Cc1cc(C(=O)N2CCOCC2)nn1CC(=O)NCc1ccc2c(c1)OCO2
RP-LC retention time: 634 s

CCn1ccc(C(=O)N2CCCN(C3=NS(=O)(=O)C(c4ccc(C)cc4)=C3C)CC2)n1
RP-LC retention time: 790 s

CCCn1cc(CCNS(=O)(=O)c2ccc(Cl)c(Cl)c2)c2cccnc21
RP-LC retention time: 1000 s

Cc1ccc(CNC(=O)C2CCN(S(=O)(=O)c3cc(-c4noc(C)n4)sc3C)CC2)o1
RP-LC retention time: 906 s

CCn1nnc2c(SCc3cc(OC)cc(OC)c3)ncnc21
RP-LC retention time: 917 s

CCC(C)(C)NS(=O)(=O)c1ccc(-c2nc(C(C)C)cs2)s1
RP-LC retention time: 1240 s

CCc1nncn1C1CCN(S(=O)(=O)c2cccc(F)c2)CC1
RP-LC retention time: 678 s

CCN(CCN(C)C)c1ccc(C(=O)O)cc1NS(=O)(=O)c1ccccc1Cl
RP-LC retention time: 582 s

COC(=O)c1ccc(C(=O)Nc2nc3c(s2)CCc2ccccc2-3)cc1
RP-LC retention time: 1120 s

Cc1cc(C)cc(NC(=O)Cn2c(N3CCOCC3)nc(C)cc2=O)c1
RP-LC retention time: 711 s

CC(C)C(NC(=O)CCc1ccccc1)C(=O)Nc1nc2ccccc2[nH]1 (stereo not given)
RP-LC retention time: 718 s

O=C(N/N=C/c1ccc([N+](=O)[O-])o1)c1ccc(O)cc1
RP-LC retention time: 675 s

CC1=NS(=O)(=O)N(C)C=C1C(=O)OCc1ccccc1
RP-LC retention time: 882 s

Cc1nc(-c2ccc(-c3noc(COc4ccccc4)n3)cc2)cs1
RP-LC retention time: 1180 s

CCCCOc1ccc(C(=O)Nc2nc3c(s2)CCc2ccc(OC)cc2-3)cc1
RP-LC retention time: 1360 s

Cc1nn(-c2ccccc2)cc1C(=O)N1CCC(CC(=O)N2CCOCC2)CC1
RP-LC retention time: 669 s

Clc1cccc(-c2nnc(Cc3nc(-c4ccc5c(c4)OCO5)no3)o2)c1
RP-LC retention time: 1020 s

CC1(c2nc(C3CC3)no2)CCCN(C(=O)c2ccc3nc[nH]c3c2)C1 (stereo not given)
RP-LC retention time: 595 s

COc1ccc2cccc(NC(=O)c3ccco3)c2n1
RP-LC retention time: 1010 s

CCc1nc(-c2csc(S(=O)(=O)N3CCC(C(=O)Nc4cccc(C#N)c4)CC3)c2)no1
RP-LC retention time: 966 s

CN(C)c1ccc(CNC(=O)c2cc(=O)n3c(nc4ccccc43)s2)cc1
RP-LC retention time: 805 s

O=C(c1cccs1)N1CCC2(CC1)NC(=O)N(Cc1ccc(Cl)cc1)C2=O
RP-LC retention time: 816 s

O=c1c(S(=O)(=O)N2CCCCCC2)cccn1Cc1cc(F)cc(F)c1
RP-LC retention time: 999 s

CCOC(=O)c1c(C)oc2ncnc(NC3CCCc4ccccc43)c12 (stereo not given)
RP-LC retention time: 1310 s

CC(C)=CCN1CCC2(CCc3ccccc32)CC1
RP-LC retention time: 775 s

CCOc1ccc(S(=O)(=O)N2CCC(C(=O)N3CCCCCC3)CC2)cc1C
RP-LC retention time: 951 s
